From patent publication US5298652A, “N-substituted glycines, inhibitors of phospholipase A2” (Hoffmann-La Roche Inc., priority 1992, dated 1994)

Key:
[1] = biological target: T1, HSF-PLA2 (extracellular PLA2 obtained from human synovial fluid) (Homo sapiens, UniProt P14555); assay: Assay for inhibition of HSF-PLA2 in vitro; assay type: biochemical; conditions: read-out: % Inhib of HSF-PLA2
T1 construct: extracellular enzyme obtained from human synovial fluid; from tissue; host or cells: human synovial fluid (pooled)
T1 sequence (P14555 21-144): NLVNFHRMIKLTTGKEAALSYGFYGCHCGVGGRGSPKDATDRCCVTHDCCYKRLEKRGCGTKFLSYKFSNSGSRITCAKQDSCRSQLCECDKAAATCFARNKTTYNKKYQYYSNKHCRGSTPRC
Protocol: Assay for Inhibition of HSF-PLA2 In Vitro
The PLA2 used in this test is the extracellular enzyme obtained from human synovial fluid (HSF-PLA2).
The assay for HSF-PLA2 activity was a modification of the described method [Franson R., Dobrow R., Weiss, J., Elsbach P., and Weglick W. B., J. Lipid Res., 19, 18-23 (1978)] which was conducted using [1-^14 C]-oleate-labelled E. coli substrate in excess at a final concentration of 20,000 dpm/ml. This was equivalent to 18.2 mM of cell membrane phospholipid phosphorus and 2×10^9 autoclaved E. coli/ml. The optimal conditions which were developed for the assay of HSF-PLA2 inhibitors are summarized as follows. A total volume of 0.5 ml of reaction mixture typically had the following final composition: substrate (20,000 dpm/ml); enzyme (0.1% HSF, v/v); 2 mM CaCl2; 150 mM Na^+; 50 mM sodium HEPES buffer, pH 7.3; and 1% dimethyl sulfoxide (DMSO, used to solubilize test inhibitors) in the presence or absence of inhibitor. The reaction was initiated by the addition of HSF-PLA2 and duplicate samples of the mixture were incubated in 13×100 mm glass tubes with shaking for 30 minutes at 37° C. The reaction was terminated by the addition of 2.5 ml of chloroform-methanol (1 to 1.5, v/v). The extraction of lipids from the stopped reaction mixture was conducted by the further additions of 0.5 ml of chloroform and 1 ml of water with mixing. After centrifuging, the lower chloroform phase was transferred to smaller glass tubes and the solvent was evaporated to dryness with a nitrogen stream. The extracted lipid residue was redissolved in […] of a solution containing carrier oleic acid (0.2 mg/ml) in chloroform-methanol [9 to 1, v/v]). The whole lipid extract was applied to a preactivated (30 minutes at 110° C.) silica gel-impregnated glass fiber thin layer chromatography sheet (ITLC type SG sheet from Gelman Sciences Inc., Ann Arbor, Mich.) using hexane-acetic acid (100 to 1, v/v) as the developing solvent. This TLC system rapidly (6 minutes) resolved the enzymatically released product, ^14 C-oleic acid, from the unreacted ^14 C-phospholipid substrate. The unsaturated lipids were located on the chromatogram by a brief exposure to iodine vapor. The oleic acid zone (Rf value 0.95) and phospholipid zone (origin) were cut out, chopped into small pieces, shaken with 2 ml of ethanol-water (80 to 20, v/v) and 15 ml of Aquasol and counted for radio-activity. A control incubation of substrate in the absence of HSF-PLA2 was performed in each experiment. The PLA2 activity of the human synovial fluid was corrected for this small control value. […] The specific activity of PLA2 in the pooled human synovial fluid under the optimal assay conditions was 49.2 nmoles [1-^14 C]-oleic aid released hour^-1 mg^-1. The IC50 (μM concentration of test compound that produces 50% inhibition of PLA2 activity) was determined for each test compound.

[2] = tested on: croton oil-induced mouse ear edema; assay: Croton oil mouse ear edema test; assay type: in vivo, male CD-1 mice; conditions: 1 mg topical, coapplied with croton oil; ear punch weight at 6 hours
Protocol: Croton Oil Mouse Ear Edema Test
The croton oil-induced mouse ear edema test, a model of irritant-induced contact dermatitis, has been used for evaluation of the PLA2 inhibitors by the topical route of administration. This test was carried out as described in the following references: […]
Twenty five μl of a 1% croton oil solution [dissolved in a mixture of pyridine/water/diethyl ether at a ratio of 5/20/75 (croton oil vehicle)] are applied to the outer side of the right ear of 3-4 week old male CD-1 mice (8 animals per group). The test compounds are dissolved directly in the 1% croton oil solution at various concentrations and coapplied. Control animals receive 25 μl of croton oil vehicle on the right ear. Biopsy punches are removed at 6 hours from the right ear of the animals using a 6 mm skin trephine (Roboz, Washington, D.C.) and the wet weight of the ear punches is determined. The weight of the biopsy punches is a measure of ear inflammation, primarily edema. The data are expressed as percent inhibition relative to control groups.
Statistical analysis of the mean edema values of the control versus the treated groups is performed using Student's t-test. The significance of changes from mean value for vehicle-treated animals is as follows (*p<0.05, **p<0.01, ***p<0.005, ns/not significant).

[3] = tested on: carrageenan-induced paw edema; assay: Rat carrageenan paw edema; assay type: in vivo, Lewis rats; conditions: 30 mg/kg ip, 1 hr prior to carrageenan
Protocol: Rat Carrageenan Paw Edema
Representative compounds of the invention were tested in rat carrageenan-induced paw edema to determine their ability to inhibit this acute inflammatory response. Test compounds were administered intraperitoneally or orally to groups of seven Lewis rats (~200 gm) 1 hr prior to carrageenan administration. The test compounds were dissolved in dimethyl sulfoxide for intraperitoneal administration and dissolved or suspended in Labrafil […] for oral administration. At 0 hour, 0.1 mL of 1% carrageenan dissolved in pyrogen free […] was injected subplanetary into the right hind paw to elicit the inflammatory response. The volume (in mL) of the right hind paw was measured by immersion of the paw to the level of the lateral malleolus in an aqueous plethysmometer immediately prior to the injection of carrageenan and then at 1, 2 and 4 hr after carrageenan injection. The paw edema was calculated by subtracting the zero time reading from the readings taken after injection. The percent change of the edema volume from the vehicle treated control was calculated to determine the activity of the test compound. Statistical analysis of the mean paw edema values of the control versus the treated groups was performed using Student's t-test.

[4] = tested on: acetic acid-induced colitis (colonic mucosa myeloperoxidase); assay: Acetic acid-induced colitis in rats; assay type: in vivo, male rats (Sprague-Dawley); conditions: 10 mg/kg po
Text: Acetic Acid-Induced Colitis in Rats
The rat acetic acid-induced colitis bioassay has been described by J. E. Krawisz, et al. in Amer. J. Proc. Gastro. Col. Rec. Surg. 31, 11-18 (1980), and by P. Sharon and W. F. Stenson in Gastroenterology 88, 55-63 (1985) and 86, 453-460 (1984). Acetic acid-induced colitis is characterized by the movement of inflammatory cells into the colon, with the number of such cells in the mucosa being measured by the activity of myeloperoxidase, a marker enzyme for these cells. Positive desirable activity is indicated by a reduction in the high levels of myeloperoxidase caused by acetic acid. Male rats (Sprague-Dawley), weighing 150 to 300 g, were pretreated twice daily for two days with either the vehicle (water or dimethylsulfoxide) or the test inhibitor compound suspended in water or dissolved in dimethylsulfoxide and orally administered. […] The colonic mucosa was surgically removed and homogenized in an aqueous buffer at pH 6 with a Tissumizer or similar device and myeloperoxidase was measured in the homogenate using o-phenyl enediamine as a chromagen, as described by A. Voller, D. E. Bidwell and A. Bartlett in "The Enzyme Linked Immunosorbent Assay (ELISA)", Zoological Soc., London, 1979, pages 29-30. […]

[5] = tested on: adjuvant arthritis induced by Freunds complete adjuvant; conditions: dose 10 mg/kp ip
Protocol: Representative compounds of the invention were tested in the standard adjuvant arthritis model in rats, induced by Freunds complete adjuvant, as described by C.

| Compound | inhibition at 5.8 µM ([1]; 5.8 μM test compound) | % Inhib of Croton Oil Mouse Ear Edema (1 mg) [2] | % Inhib of Carrageenan Paw Edema 2 hr 30 mg/kg ip [3] | % Inhib of Myeloperoxidase Accumulation [4] | Change in Paw Volume in ml, Treated [5] | inhibition at 1 µM ([1]; 1 μM test compound) |
| --- | --- | --- | --- | --- | --- | --- |
| CCCCCCCCCCCCCCCCCCOc1cccc(C(=O)N(CC(=O)O)CC(=O)O)c1 [Example 4, N-(Carboxymethyl)-N-[3-(octadecyloxy)benzoyl]glycine] | 50% | 17% | 50% | 112 ± 53% | -0.14 ± 0.06 mL |  |
| CCCCCCCCCCCCCCCCCCOc1ccc(C(=O)C(=O)N(CC(=O)O)CC(=O)O)cc1 [Example 65, N-(Carboxymethyl)-N-[2-[4-(octadecyloxy)phenyl]-1,2-dioxoethyl]glycine] |  | 44% | 71% |  | -0.07 ± 0.08 mL | 74% |
